Experimental data published in PubChem BioAssay (NCI).
“And” between values parts separate entries of the source, which are not always exact repeats. Equal entries are not always repeated.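 Following 48 hours of exposure in 96-well plates, responses at five concentrations were used to interpolate endpoints linearly. GI50 = concentration required for 50% inhibition of growth. TGI denotes the concentration required for complete inhibition of growth.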

Experiments:
Test in all cases: NCI anticancer screen, dose series, 48 h
HOP-92 NSCLC = test system: HOP-92 NSCLC
786-0 renal = test system: 786-0 renal
SK-OV-3 ovarian = test system: SK-OV-3 ovarian
A498 renal = test system: A498 renal
PC-3 prostate = test system: PC-3 prostate
U251 CNS = test system: U251 CNS
SF-295 CNS = test system: SF-295 CNS
NCI-H226 lung = test system: NCI-H226 lung
CAKI-1 renal = test system: CAKI-1 renal
HS 578T breast = test system: HS 578T breast

| SMILES | GI50 (HOP-92 NSCLC) | TGI (HOP-92 NSCLC) | GI50 (786-0 renal) | TGI (786-0 renal) | GI50 (SK-OV-3 ovarian) | TGI (SK-OV-3 ovarian) [µM] | GI50 (A498 renal) | TGI (A498 renal) | GI50 (PC-3 prostate) | TGI (PC-3 prostate) [µM] | GI50 (U251 CNS) | TGI (U251 CNS) [µM] | GI50 (SF-295 CNS) | TGI (SF-295 CNS) | GI50 (NCI-H226 lung) | TGI (NCI-H226 lung) [µM] | GI50 (CAKI-1 renal) | TGI (CAKI-1 renal) [µM] | GI50 (HS 578T breast) | TGI (HS 578T breast) |
| --- | --- | --- | --- | --- | --- | --- | --- | --- | --- | --- | --- | --- | --- | --- | --- | --- | --- | --- | --- | --- |
| CNC(=O)c1cccc(C#Cc2cncnc2Nc2ccc(OCc3cccc(F)c3)c(Cl)c2)c1 | 3.31 µM | 11 µM | 6.33 µM | > 25 µM | 3.19 µM | 12.7 | 1.84 µM | 10.9 µM | 7.49 µM | > 22.8 | 4.47 µM | 10.2 | 5.45 µM | 20.5 µM | 5.8 µM | > 17.9 | 2.09 µM | > 25 | 7.47 µM | > 25 µM |
| COc1cc2nc3cc([N+](=O)[O-])ccc3c(NCCNCC(C)O)c2cc1OC (configuration not stated) | 0.367 µM | 2.31 µM | 1.23 µM | 3.6 µM | 1.98 µM | 5.35 | 1.37 µM | 3.02 µM | 0.512 µM | 2.46 | 0.442 µM | 2.26 | 0.484 µM | 3.34 µM | 1.05 µM | 3.18 | 2.5 µM | 10.9 | 1.45 µM | 5.51 µM |
| COc1ccc(-c2cn(-c3cc(OC)c(OC)c(OC)c3)c(=O)[nH]2)cc1OC | > 100 µM | > 100 µM | > 100 µM | > 100 µM | > 100 µM | > 100 | 80.3 µM | > 100 µM | > 100 µM | > 100 | > 100 µM | > 100 | > 100 µM | > 100 µM | > 100 µM | > 100 | > 100 µM | > 100 | 20.2 µM | > 100 µM |
| Cc1cccc(Cl)c1NC(=O)c1cnc(Nc2cc(N3CCOCC3)cc(S(C)(=O)=O)c2)s1 | 0.0294 µM | 0.303 µM | 0.171 µM | > 5.31 µM | 0.191 µM | > 8.3 | 0.254 µM | 2.39 µM | 1.46 µM | > 10 | > 5.57 µM | > 10 | > 4.23 µM | > 10 µM | – | > 10 | 0.0975 µM | 0.742 | 0.138 µM | 0.826 µM |
| C/C=C(\C)C(=O)O[C@H]1C=CC(=O)O[C@H]1COC(=O)[C@H](C)O | 7.6 µM | 21.1 µM | 6.59 µM | 20.9 µM | 17.6 µM | 46.4 | 15.7 µM | 31.4 µM | 11 µM | 28.9 | 7.35 µM | 21 | 13.1 µM | 28.9 µM | 12.4 µM | 31.5 | 5.46 µM | 14.9 | 7.37 µM | 26 µM |
| Cc1ccc(OCCOCCOCCOCCOCCOc2ccc(C)n(O)c2=S)c(=S)n1O | 3.06 µM | 54.5 µM | 0.0952 µM | > 100 µM | 0.0583 µM | > 48 | 0.149 µM | 3.88 µM | 0.345 µM | > 100 | 0.0633 µM | > 100 | 0.0378 µM | > 43.6 µM | 0.0576 µM | 14.7 | 0.0453 µM | > 100 | 1.67 µM | 74.6 µM |
| CC1Cc2ccccc2N1C(=O)Cc1nc(N2CCOCC2)cc(=O)[nH]1 (configuration not stated) | 0.915 µM and 3.04 µM | 46.1 µM and > 75.2 µM | 0.639 µM and 3.19 µM | > 100 µM and 98.4 µM | 4.9 µM and 13.3 µM | > 100 | 0.026 µM and 0.0929 µM | 0.189 µM and 0.559 µM | 2.47 µM and 5.2 µM | > 100 | 21.8 µM and 45.9 µM | > 100 | 3.15 µM and 6.95 µM | > 100 µM and 97.7 µM | 36.4 µM and 32.5 µM | > 100 | 10.5 µM and 28 µM | > 100 | 1.75 µM and 4.13 µM | 33.7 µM and 49.8 µM |
| CC/C=C\C[C@H](O)C/C=C1/C(=O)C=C[C@@H]1C/C=C\CCCCO | 11.7 µM | 25 µM | 1.91 µM | 3.77 µM | 5.08 µM | 29.2 | 16.8 µM | 32.5 µM | 3.32 µM | 9.23 | 3.81 µM | 13.4 | 2.39 µM | 6.34 µM | 2.24 µM | 4.76 | 3.14 µM | 12.8 | 9.24 µM | > 100 µM |
| CN(C)Cc1c(C(=O)NCCOc2ccc(C(=O)NO)cc2)oc2ccccc12 | 0.0603 µM | 0.424 µM | 0.405 µM | 9.16 µM | 0.273 µM | 2.01 | 0.126 µM | 0.411 µM | 0.214 µM | 5.06 | 0.229 µM | 0.976 | 0.225 µM | 0.713 µM | 0.626 µM | 7.6 | 0.311 µM | 1.57 | 0.158 µM | 0.851 µM |
| [Cu+2].[NH-]C(CC(=O)O)C(=O)O.[NH-]C(CC(=O)O)C(=O)O (configuration not stated) | > 100 µM | > 100 µM | > 100 µM | > 100 µM | > 100 µM | > 100 | 36.7 µM | > 100 µM | > 100 µM | > 100 | > 100 µM | > 100 | > 100 µM | > 100 µM | > 100 µM | > 100 | > 100 µM | > 100 | > 100 µM | > 100 µM |
| COC(=O)[C@@H](C)C[C@H](Cc1ccccc1)NC(=O)c1csc([C@@H](C[C@H](C(C)C)N(C)C(=O)[C@@H](NC(=O)[C@H]2CCCN2C)C2CC2)OC(C)=O)n1 | 0.000286 µM | – | 0.00479 µM and 0.0025 µM | > 25 µM | 0.0083 µM and 0.0025 µM | > 25 | 0.00147 µM and < 0.0025 µM | 0.00817 µM and < 0.0025 µM | 0.000545 µM and 0.0025 µM | > 25 | 0.00287 µM and 0.0025 µM | > 25 | 0.00302 µM and 0.0025 µM | > 25 µM | – | > 25 | – | – | 0.00186 µM | – |
| Cn1cc(C2=C(c3cn(CCCCCO)c4ccccc34)C(=O)NC2=O)c2ccccc21 | – | – | 5.81 µM | > 21.5 µM | 4.92 µM | 17.8 | 4.18 µM | 14.3 µM | 6.88 µM | > 24.1 | 5.98 µM | > 17.3 | 4.5 µM | 13.9 µM | 5.03 µM | 15.8 | 6.34 µM | > 23.3 | 3.74 µM | 17.5 µM |
